Experimental data taken from publication PMC11823609, “Advancements in the fight against globally distributed OXA-48 carbapenemase: evaluating the new generation of carbapenemase inhibitors” (Antimicrobial Agents and Chemotherapy, 2025).
Converted amounts (≈) assume the structure as drawn. Where two headings read alike, the source gives them in different places.

Legend:
[1] = system: E. coli TG1; experiment: microbe, parasite or virus in culture; format: cell-based; settings: Escherichia coli
Procedure: (§1) The MICs of each of the individual compounds (antibiotics or inhibitors) were also determined. The MICs were determined for the E. coli isogenic expressing OXA-48 (and both OXA-48 and CTX-M-14) to assess their activity against the carbapenemase; MICs were also determined for the 18 Enterobacterales clinical isolates in order to evaluate the new inhibitors against also their resistance concomitant mechanisms. The MICs were determined in triplicate experiments, and the EUCAST 13.0 clinical breakpoints were followed (http://www.eucast.org/clinical_breakpoints).
(§2) For comparative evaluation of the activity of each inhibitor alone against the carbapenemase OXA-48, all inhibitors (at 4 mg/L) were tested in the presence of a carbapenem (ertapenem, adequate substrate) and a cephalosporin (ceftazidime, poor substrate) as reporter substrates. This prevented any possible masking effect produced by the different partner antibiotics. These assays were also performed with isogenic transformants and clinical isolates.

[2] = system: E. coli TG1 (OXA-48); experiment: microbe, parasite or virus in culture; format: cell-based, Escherichia coli; settings: Escherichia coli
Procedure: as §1, §2

[3] = system: E. coli HB4 ΔompC/F (CTX-M-14 + OXA-48); experiment: microbe, parasite or virus in culture; format: cell-based, Escherichia coli; settings: Escherichia coli
Excerpt: (§3) The E. coli HB4 strain was used to gain a more complete perspective, by evaluating the involvement in resistance of a low permeability background with the carbapenemase OXA-48, as well as coproduction of an ESBL and the carbapenemase; thus, the ESBL CTX-M-14 and OXA-48 were cloned together and separately into E. coli HB4. The characteristics of these strains and transformants are summarized in Table S1, and the cloning procedures are outlined in the supplemental methods.
as §1, §2

[4] = system: E. coli HB4 ΔompC/F (CTX-M-14); experiment: microbe, parasite or virus in culture; format: cell-based, Escherichia coli; settings: Escherichia coli
Excerpt: as §3, §1, §2

[5] = system: E. coli HB4 ΔompC/F (OXA-48); experiment: microbe, parasite or virus in culture; format: cell-based, Escherichia coli; settings: Escherichia coli
Excerpt: as §3, §1, §2

[6] = system: E. coli HB4 ΔompC/F; experiment: microbe, parasite or virus in culture; format: cell-based, Escherichia coli; settings: Escherichia coli
Excerpt: as §3, §1, §2

[7] = system: E. cloacae strain 231 (MLST 171, No ESBL); experiment: microbe, parasite or virus in culture; format: cell-based; settings: Enterobacter cloacae, E. cloacae 231, read-out: MIC
Procedure: (§4) The efficacy of these new BLIs was also evaluated against 18 genetically diverse WGS-characterized collection of OXA-48-positive Enterobacterales recovered as part of the Carbapenem-resistant Enterobacterales Genome Database Project (https://genomes.cnag.cat/incredble) listed in Table S2 ([13]). Combinations of clinical isolates (five pairs of Klebsiella pneumoniae, two pairs of Enterobacter cloacae, and two pairs of E. coli) were chosen for analysis: (i) nine strains carrying ESBLs; and (ii) nine strains (genetically closer available strains) without ESBLs.
as §1, §2

[8] = system: E. cloacae strain 235 (MLST 171, ESBL); experiment: microbe, parasite or virus in culture; format: cell-based; settings: Enterobacter cloacae
Procedure: as §4, §1, §2

[9] = system: E. cloacae strain 272 (MLST 78, ESBL); experiment: microbe, parasite or virus in culture; format: cell-based; settings: Enterobacter cloacae
Procedure: as §4, §1, §2

[10] = system: E. cloacae strain 281 (MLST 78, No ESBL); experiment: microbe, parasite or virus in culture; format: cell-based; settings: Enterobacter cloacae, E. cloacae 281, read-out: MIC
Procedure: as §4, §1, §2

[11] = system: E. coli strain 103 (MLST 10, ESBL); experiment: microbe, parasite or virus in culture; format: cell-based; settings: Escherichia coli
Procedure: as §4, §1, §2

[12] = system: E. coli strain 177 (MLST 131, ESBL); experiment: microbe, parasite or virus in culture; format: cell-based; settings: Escherichia coli
Procedure: as §4, §1, §2

[13] = system: E. coli strain 224 (MLST 127, No ESBL); experiment: microbe, parasite or virus in culture; format: cell-based; settings: Escherichia coli, E. coli 224, read-out: MIC
Procedure: as §4, §1, §2

[14] = system: E. coli strain 264 (MLST 131, No ESBL); experiment: microbe, parasite or virus in culture; format: cell-based; settings: Escherichia coli, E. coli 264, read-out: MIC
Procedure: as §4, §1, §2

[15] = system: K. pneumoniae strain 125 (MLST 307, ESBL); experiment: microbe, parasite or virus in culture; format: cell-based; settings: Klebsiella pneumoniae
Procedure: as §4, §1, §2

[16] = system: K. pneumoniae strain 170 (MLST 307, No ESBL); experiment: microbe, parasite or virus in culture; format: cell-based; settings: Klebsiella pneumoniae, K. pneumoniae 170, read-out: MIC
Procedure: as §4, §1, §2

[17] = system: K. pneumoniae strain 19 (MLST 11, ESBL); experiment: microbe, parasite or virus in culture; format: cell-based; settings: Klebsiella pneumoniae
Procedure: as §4, §1, §2

[18] = system: K. pneumoniae strain 194 (MLST 392, No ESBL); experiment: microbe, parasite or virus in culture; format: cell-based; settings: Klebsiella pneumoniae, K. pneumoniae 194, read-out: MIC
Procedure: as §4, §1, §2

[19] = system: K. pneumoniae strain 23 (MLST 392, ESBL); experiment: microbe, parasite or virus in culture; format: cell-based; settings: Klebsiella pneumoniae
Procedure: as §4, §1, §2

[20] = system: K. pneumoniae strain 237 (MLST 147, No ESBL); experiment: microbe, parasite or virus in culture; format: cell-based; settings: Klebsiella pneumoniae, K. pneumoniae 237, read-out: MIC
Procedure: as §4, §1, §2

[21] = system: K. pneumoniae strain 238 (MLST 15, ESBL); experiment: microbe, parasite or virus in culture; format: cell-based; settings: Klebsiella pneumoniae
Procedure: as §4, §1, §2

[22] = system: K. pneumoniae strain 413 (MLST 147, ESBL); experiment: microbe, parasite or virus in culture; format: cell-based; settings: Klebsiella pneumoniae
Procedure: as §4, §1, §2

[23] = system: K. pneumoniae strain 497 (MLST 11, No ESBL); experiment: microbe, parasite or virus in culture; format: cell-based; settings: Klebsiella pneumoniae, K. pneumoniae 497, read-out: MIC
Procedure: as §4, §1, §2

[24] = system: K. pneumoniae strain 71 (MLST 15, No ESBL); experiment: microbe, parasite or virus in culture; format: cell-based; settings: Klebsiella pneumoniae, K. pneumoniae 71, read-out: MIC
Procedure: as §4, §1, §2

[25] = system: OXA-48-producing Enterobacterales clinical isolates; experiment: MIC summary over clinical isolates; format: cell-based
Procedure: as §4, §1, §2

[26] = system: E. coli TG1 and HB4 transformants; experiment: MIC summary over E. coli transformants; format: cell-based, Escherichia coli
Excerpt: as §3, §1, §2

[27] = system: O=C(Cc1cccs1)N[C@@H]1C(=O)N2C(C(=O)O)=C(/C=C/c3ccc([N+](=O)[O-])cc3[N+](=O)[O-])CS[C@H]12; experiment: purified protein, by the assay type; settings: other: substrate hydrolysis by OXA-48; pH 7.4; 25.0 °C
[28] = BL alone or BL/BLI: AVI, REL, TAN, DUR 4 mg/L, VAB, XER 8 mg/L, ZID, NAC 1:1
[29] = ertapenem alone or with BLI at 4 mg/L

Row | Molecule | MIC [2] | MIC [3] | MIC [4] | MIC [5] | MIC [6] | MIC [8] | MIC [9] | MIC [11] | MIC [12] | MIC [15] | MIC [17] | MIC [19] | MIC [21] | MIC [22] | further results
1 | CC1(C)[C@H](C(=O)O)N2C(=O)C[C@H]2S1(=O)=O [SUL, sulbactam] | 32 µg/mL (≈ 137 µM) | 64 µg/mL (≈ 274 µM) | 32 µg/mL (≈ 137 µM) | 64 µg/mL (≈ 274 µM) | 32 µg/mL (≈ 137 µM) | ≥ 256 µg/mL | 128 µg/mL | 64 µg/mL | 64 µg/mL | 64 µg/mL | 64 µg/mL | 128 µg/mL | 128 µg/mL | 128 µg/mL | MIC [1, 28]: 32 µg/mL (≈ 137 µM); MIC [7, 28]: 64 µg/mL; MIC [10, 28]: 128 µg/mL; MIC [13, 28]: 128 µg/mL; MIC [14, 28]: 64 µg/mL; MIC [16, 28]: 64 µg/mL; MIC [18, 28]: 64 µg/mL; MIC [20, 28]: 64 µg/mL; MIC [23, 28]: 128 µg/mL; MIC [24, 28]: 128 µg/mL; MIC [25]: ≥ 64 µg/mL
2 | O=C(NNC(=O)[C@@H]1CC[C@@H]2CN1C(=O)N2OS(=O)(=O)O)[C@@H]1CCCNC1 [Zidebactam, zidebactam] | 0.12 µg/mL (≈ 0.307 µM) | 0.5 µg/mL (≈ 1.28 µM) | 0.5 µg/mL (≈ 1.28 µM) | 0.5 µg/mL (≈ 1.28 µM) | 0.5 µg/mL (≈ 1.28 µM) | 2 µg/mL | 0.5 µg/mL | 8 µg/mL | 0.5 µg/mL | ≥ 128 µg/mL | ≥ 128 µg/mL | 0.5 µg/mL | 0.25 µg/mL | ≥ 128 µg/mL | MIC ([1]; β-lactamase inhibitor alone): 0.12 µg/mL (≈ 0.307 µM); MIC ([7]; β-lactamase inhibitor alone): 0.25 µg/mL; MIC ([10]; β-lactamase inhibitor alone): 0.25 µg/mL; MIC ([13]; β-lactamase inhibitor alone): 0.25 µg/mL; MIC ([14]; β-lactamase inhibitor alone): 0.12 µg/mL; MIC ([16]; β-lactamase inhibitor alone): 0.5 µg/mL; MIC ([18]; β-lactamase inhibitor alone): 0.5 µg/mL; MIC ([20]; β-lactamase inhibitor alone): 0.5 µg/mL; MIC ([23]; β-lactamase inhibitor alone): 32 µg/mL; MIC ([24]; β-lactamase inhibitor alone): 0.5 µg/mL; effect of ertapenem/BLI on bacterial growth ([26]; OXA-48-producing E. coli hosts, BLI 4 mg/L): totally inhibited bacterial growth; MICs of inhibitor alone (range over strains) ([26]; TG1 and HB4 E. coli): 0.12 to 2 mg/L; reduction of cefepime MICs by BLI ([25]; clinical isolates): 2–512 fold
3 | OXA-48 (Klebsiella pneumoniae) |  |  |  |  |  |  |  |  |  |  |  |  |  |  | Km [27]: 56.5 µM; kcat [27]: 171.4 s⁻¹; kcat/Km [27]: 3.05e+06 M⁻¹ s⁻¹
4 | C[C@@H](O)[C@H]1C(=O)N2C(C(=O)O)=C(S[C@@H]3CN[C@H](C(=O)Nc4cccc(C(=O)O)c4)C3)[C@H](C)[C@H]12 [ERT, ertapenem] | 1 µg/mL (≈ 2.1 µM) | 32 µg/mL (≈ 67.3 µM) | 0.5 µg/mL (≈ 1.05 µM) | 32 µg/mL (≈ 67.3 µM) | 0.12 µg/mL (≈ 0.252 µM) | ≥ 256 µg/mL | 16 µg/mL | 4 µg/mL | 4 µg/mL | 8 µg/mL | 4 µg/mL | 4 µg/mL | 4 µg/mL | ≥ 256 µg/mL | MIC [1, 29]: ≤ 0.06 µg/mL; MIC [7, 29]: 8 µg/mL; MIC [10, 29]: 4 µg/mL; MIC [13, 29]: 2 µg/mL; MIC [14, 29]: 4 µg/mL; MIC [16, 29]: 4 µg/mL; MIC [18, 29]: 4 µg/mL; MIC [20, 29]: 4 µg/mL; MIC [23, 29]: 8 µg/mL; MIC [24, 29]: 8 µg/mL
